Common to all, as to test: NCI-60 cell line screen, 48 h
The subject of assay [1] is UACC-257 melanoma.
The test system of assay [2] is MOLT-4 leukemia.
Assay [3] relates to SK-MEL-5 melanoma.
Assay [4] has as its system SNB-75 CNS.
Assay [5] deals with NCI-H23 lung.
Assay [6] has as its system SR leukemia.
Assay [7] relates to PC-3 prostate.
The test system of assay [8] is HS 578T breast.
In assay [9] the test system is MDA-MB-231 breast.
Assay [10] deals with DU-145 prostate.

Each structure is given as a SMILES string.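 These data come from cells grown in 96-well plates and exposed to compound for 48 hours at five concentrations. The concentration for 50% growth inhibition is given as GI50. TGI: concentration producing complete growth inhibition.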 Where a SMILES comes first, the peptide text is derived from it. [ ]: non-standard residue; d: D form. The star is where a group is joined. Phe(4-NO2) = N[CH](Cc1ccc([N+](=O)[O-])cc1)C(=O)O; Boc = CC(C)(C)OC(=O)*

In the case of `Cc1ccc(N2C(=O)C3CSCN3C2=O)cc1` (stereo not given), the TGI in assay [1], in assay [2], in assay [3], in [4] and in assay [5] was > 100 µM in each case.

Consider `O=c1cc(N2CCOCC2)n2c(ccc3ccccc32)n1`, for which the TGI in [1], in assay [6], in assay [2], in assay [7], in [8] and in [3] was > 100 µM throughout. In addition, the TGI in assay [9], in [4] and in assay [5] was > 100 µM throughout.

Turning to `Oc1ccc2ccccc2c1OCc1nnc(CCCCCCCCc2nnc(COc3c(O)ccc4ccccc34)n2Nc2ccccc2)n1Nc1ccccc1`, the TGI in [1] was > 80 µM; in assay [2] it was > 100 µM; in assay [7] it was > 100 µM; in assay [8] it was 65.2 µM; in assay [3] it was 2.37 µM; in assay [9], 61.1 µM. In addition, the TGI in assay [4] is > 100 µM; in assay [10], > 70.1 µM; in [5] it was > 75.2 µM.

Take `O=C(O)Cn1c2c(c3c1-c1ccccc1C3=O)C(=O)CCC2`: the GI50 in assay [1], in assay [2], in assay [8], in assay [3], in [9] and in assay [4] was > 100 µM throughout. The GI50 in assay [10] and in [5] was > 100 µM in each case. In addition, the TGI in [1], in assay [2], in [8], in assay [3], in assay [9] and in [4] was > 100 µM throughout. The TGI in [10] and in assay [5] was > 100 µM in each case.

Regarding `COc1cccc(C(C#N)NNC(=O)c2c(Cl)c(Cl)c(Cl)c(Cl)c2-c2nc3ccc(C(=O)c4ccccc4)cc3[nH]2)c1O` (stereo not given), the TGI is > 100 µM in [1]; > 100 µM in assay [6]; > 100 µM in assay [2]; > 100 µM in [7]; 10.5 µM in assay [3]; > 100 µM in assay [9]. Moreover, the TGI is 7.46 µM in [4], > 100 µM in assay [10] and > 100 µM in assay [5].

With `COc1ccc(/C=c2\[nH]c3nc(=O)c(N4CCCCC4)c(N)n3c2=O)cc1`, the TGI in assay [1], in assay [6], in assay [2], in assay [8], in [3] and in [9] was > 100 µM each time. The TGI was 78.7 µM in [4], > 100 µM in [10] and > 100 µM in assay [5].

Turning to `Oc1c(Cl)cc2cc1-c1cc(cc(Cl)c1O)CCc1c(cc(Cl)c(O)c1Cl)-c1cc(Cl)c(c(Cl)c1O)/C=C\2`, the TGI in assay [1] was 35.8 µM; in [6], > 50 µM; in assay [2], > 50 µM; in assay [7] it was 20.3 µM; in assay [8], 33.7 µM; in assay [3], 14.9 µM. For the same compound, the TGI is 17.6 µM in assay [4], 16.1 µM in assay [10] and 33.6 µM in [5].

In the case of `C=CC(C)(C)/C=C/c1ccc(O)cc1`, the TGI was > 100 µM in assay [1]; > 100 µM in assay [2]; 89.4 µM in assay [7]; > 100 µM in assay [8]; > 100 µM in assay [3]; > 100 µM in [9]. Besides, the TGI in [10] and in assay [5] was > 100 µM in each case.

As to `CC(C)[C@H](C)/C=C/[C@@H](C)C1CC[C@H]2[C@@]34C=C[C@]5(C[C@@H](O)CC[C@]5(C)[C@H]3CC[C@]12C)OO4` (stereo not given in full), the TGI in assay [1] is > 100 µM; in assay [2], > 100 µM; in assay [3] it was 62.2 µM; in [9] it was 84.9 µM; in [4] it was > 100 µM; in assay [10], 56 µM. The TGI in assay [5] worked out at 92.5 µM.

As for `Cc1cc(S(=O)(=O)Nc2nc3cscc3c(=O)n2N)c(S)cc1Cl`, the TGI in assay [1] was > 100 µM; in assay [2], > 100 µM; in assay [7], > 100 µM; in [3], > 100 µM; in assay [9] it was > 100 µM; in assay [4] it was 58.5 µM. Also, the TGI in [10] and in [5] was > 100 µM in each case.

`COc1cc(S(=O)(=O)Nc2ccc(-c3csc(N4C(=O)C(Cl)C4c4ccccc4O)n3)cc2)ccc1Cl` (stereo not given): the TGI was 88.6 µM in assay [1]; 52 µM in assay [6]; 41.7 µM in assay [2]; > 100 µM in assay [7]; > 100 µM in [8]; > 100 µM in assay [3]. For the same compound, the TGI in assay [4] is > 100 µM; in assay [10] it was 66.6 µM; in [5], 80.5 µM.

For `CN(C)C=N[C@@H](C(=O)O)c1ccccc1`, the TGI in assay [1], in [6], in assay [2], in assay [7], in assay [3] and in assay [9] was > 100 µM in each case. Besides, the TGI in assay [4], in assay [10] and in [5] was > 100 µM throughout.

Regarding `CCC1=C(C[C@H]2NCCc3cc(OC)c(OC)cc32)C[C@H]2c3cc(OC)c(OC)cc3CCN2C1`, the TGI is 0.365 µM in [1]; 55.1 µM in assay [6]; > 100 µM in assay [2]; 0.0551 µM in [3]; 0.107 µM in assay [4]; 0.0532 µM in [5].

`O=Nc1c(-c2c(O)[nH]c3ccc(I)cc23)[nH]c2ccccc12`: the TGI in assay [1] is > 100 µM; in assay [7], > 27.9 µM; in [8], > 29.8 µM; in assay [3], > 100 µM; in assay [9], 9.77 µM; in assay [4] it was 20.7 µM. Further, the TGI in [10] was > 24.6 µM; in assay [5], > 100 µM.

Take `Cc1cc2c(=O)c3ccc(Cl)cc3[nH]c2c(C(N)=O)c1C`: the TGI in assay [1], in [2], in assay [3], in assay [4] and in assay [5] was > 100 µM throughout.

As to `Cc1ccc(-n2nncc2[Si](C)(C)C)s1`, the TGI in assay [1], in [7], in [8], in assay [3], in assay [9] and in [10] was > 100 µM throughout. The TGI in assay [5] was > 100 µM.

With `O=C1N2CCC[C@H]2CS1(=O)=O`, the TGI was 37.4 µM in [1]; 22.5 µM in assay [2]; 31.4 µM in [7]; > 100 µM in [8]; 33.3 µM in assay [3]; 29.6 µM in assay [9]. Further, the TGI stood at 41.2 µM in [4], 35.8 µM in assay [10] and 34 µM in assay [5].

`Cc1cc(=O)[nH]c(NNC(C#N)c2ccccc2O)n1` (stereo not given): the TGI in assay [1] was > 100 µM; in assay [6], > 100 µM; in assay [2], > 100 µM; in assay [3], 75.9 µM; in assay [4], > 100 µM; in assay [5], > 100 µM.

With `c1ccc2c[n+](CCCC[n+]3ccc4ccccc4c3)ccc2c1`, the TGI in [1], in [6], in assay [7], in assay [3], in assay [9] and in assay [4] was > 100 µM each time. In addition, the TGI in assay [10] and in [5] was > 100 µM each time.

Take `Cc1cc(C)c2c(c1)C/C(=C\c1cccc(C)c1C(=O)O)C2=O`: the TGI in [1], in assay [6], in assay [2], in assay [7], in [3] and in assay [9] was > 100 µM throughout. The TGI in [4], in [10] and in assay [5] was > 100 µM each time.

In the case of `COc1ccc(OC)c2c(C)ccnc12`, the TGI in assay [1] is > 92.5 µM; in [7], > 100 µM; in [3], > 84.4 µM; in assay [9], > 100 µM; in [4], > 100 µM; in assay [10], > 100 µM. Also, in [5], the TGI is > 96.1 µM.

Take `COC(=O)[C@@H](NS(=O)(=O)CC12CCC(CC1)C2(C)C)C(C)(C)C`: the TGI in assay [1] was > 100 µM; in [6], > 100 µM; in [2] it was 70 µM; in assay [8] it was > 100 µM; in assay [3], > 100 µM; in [9] it was > 100 µM. The TGI in assay [4], in assay [10] and in [5] was > 100 µM each time.

As to `CCOc1ccc2nc3nc(=O)[nH]c(C)c3c(NC(C)(CO)CO)c2c1`, the TGI in assay [1], in assay [2], in assay [7], in assay [8], in assay [3] and in [9] was > 100 µM throughout. Further, the TGI in [4], in assay [10] and in assay [5] was > 100 µM throughout.

`COC(=O)C(Cc1c[nH]c2ccccc12)NC(=O)C(Cc1c[nH]c2ccccc12)NC(=O)C(Cc1c[nH]c2ccccc12)NC(=O)C(Cc1c[nH]c2ccccc12)NC(=O)C(Cc1c[nH]c2ccccc12)NC(=O)C(Cc1c[nH]c2ccccc12)NC(=O)C(Cc1c[nH]c2ccccc12)NC(=O)OC(C)(C)C` (stereo not given) (Boc-WWWWWWW-OMe; configuration not given here): the TGI in assay [1], in [6], in assay [2], in assay [7], in [3] and in assay [9] was > 100 µM each time. Besides, the TGI in [4], in [10] and in assay [5] was > 100 µM each time.

`CCOC(=O)CCC(NC(=O)C(Cc1ccc([N+](=O)[O-])cc1)NC(=O)OC(C)(C)C)C(=O)NC(CCC(=O)OCC)C(=O)OCC` (stereo not given) (Boc-[Phe(4-NO2)]-Glu(OEt)-Glu(OEt)-OEt; configuration not given here): the TGI in [6] was 9.38 µM; in [2], 6.62 µM; in assay [7] it was 39.5 µM; in assay [8] it was 53.1 µM; in assay [3] it was 31.2 µM; in assay [9] it was > 100 µM. For the same compound, the TGI in assay [4] stood at 31.5 µM; in assay [5], 31.8 µM.

In the case of `O=C(c1ccccc1)c1nnn(Cc2ccccc2Cn2nnc(C(=O)c3ccccc3)c2C(=O)c2ccccc2)c1C(=O)c1ccccc1`, the TGI in [1], in assay [6], in assay [2], in assay [3], in [4] and in assay [5] was > 100 µM each time.

For `O=C1c2ccncc2C(=O)c2c(O)ccc(O)c21`, the TGI in assay [6] is 52.3 µM; in [2], 54.5 µM; in assay [4] it was 49.1 µM.

As to `Cc1cn(C2CC(COCc3ccccc3)N(CCO[Si](C)(C)C(C)(C)C)O2)c(=O)[nH]c1=O` (stereo not given), the TGI came out at 71.4 µM in assay [6]; 32.3 µM in assay [2]; 18.1 µM in [7]; 12.9 µM in assay [3]; 33.2 µM in [9]; 31 µM in assay [10]. The compound also displayed a TGI in assay [5] of 30.7 µM.

As for `Oc1ccc(Cl)cc1-c1cc(-c2ccccc2)nc(=S)[nH]1`, the TGI in assay [1] is > 100 µM; in assay [2], > 100 µM; in [7], > 100 µM; in assay [8] it was > 100 µM; in assay [3] it was > 100 µM; in assay [9] it was 85.8 µM. Besides, the TGI in assay [4] is 59.2 µM; in [10], > 100 µM; in assay [5], > 100 µM.

In the case of `COc1cccc2c1OC1c3ccccc3OCC1(O)C2` (stereo not given), the TGI in assay [1], in assay [2], in assay [7], in assay [3], in [9] and in assay [4] was > 100 µM in each case. Also, the TGI in assay [10] and in assay [5] was > 100 µM in each case.

For the origin of these results see PubChem BioAssay (NCI).
